From US20250179073A1, “TRICYCLIC HETEROCYCLE COMPOUNDS AS IAP ANTAGONISTS” (Ascentage Pharma (Suzhou) Co., Ltd., priority 2022, published 2025)

Test system: MDA-MB-231 cells
Assay: Cell proliferation assay (CellTiter-Glo), MDA-MB-231
Format: cell-based
Conditions: 72 h treatment, Celltiter-Glo luminescence
Procedure, shortened: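 Compounds tested over ten concentrations ([…]) for 72 h on EVSA-T cells in MEM/10% FBS and MDA-MB-231 cells in RPMI-1640/10% FBS, seeded at 10000/well. Luminescent CellTiter-Glo readout; IC50 fitted after normalisation to controls.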

| SMILES | IC50 (Homo sapiens, MDA-MB-231, 72 h) [nM] | IC50 [nM] |
| --- | --- | --- |
| C[C@@H]1CN(CC(=O)N2CC(C)(C)c3c2cc(N2CCCc4cc(F)ccc42)c2ncnn32)[C@@H](CN2CCOC[C@H]2C)CN1 [Compound 168, 1-(4-(6-fluoro-3,4-dihydroquinolin-1(2H)-yl)-8,8-dimethyl-7,8-dihydro-6H-pyrrolo[2,3-e][1,2,4]triazolo[1,5-a]pyridin-6-yl)-2-((2R,5R)-5-methyl-2-(((R)-3-methylmorpholino)methyl)piperazin-1-yl)ethan-1-one] | 190 |  |
| C[C@@H]1CN(CC(=O)N2CC(C)(C)c3c2cc(Cc2ccc(F)cc2)c2ncnn32)[C@@H](CN2CC3CC2CO3)CN1 (stereo partly drawn) [Compound 78, 2-((2R,5R)-2-((2-oxa-5-azabicyclo[2.2.1]heptan-5-yl)methyl)-5-methylpiperazin-1-yl)-1-(4-(4-fluorobenzyl)-8,8-dimethyl-7,8-dihydro-6H-pyrrolo[2,3-e][1,2,4]triazolo[1,5-a]pyridin-6-yl)ethan-1-one] | 120 |  |
| C[C@@H]1CN(CC(=O)N2CC(C)(C)c3c2cc(Cc2ccc(F)cc2)c2nc(N4C[C@@H](O)[C@H](O)C4)nn32)[C@@H](CN2CCOC[C@H]2C)CN1 [Compound 188, 1-(2-((3R,4R)-3,4-dihydroxypyrrolidin-1-yl)-4-(4-fluorobenzyl)-8,8-dimethyl-7,8-dihydro-6H-pyrrolo[2,3-e][1,2,4]triazolo[1,5-a]pyridin-6-yl)-2-((2R,5R)-5-methyl-2-(((R)-3-methylmorpholino)methyl)piperazin-1-yl)ethan-1-one] |  | 80 |
| C[C@@H]1CN(CC(=O)N2CC(C)(C)c3c2cc(C(=O)c2ccc(F)cc2)c2ncnn32)[C@@H](CN2CCOC[C@H]2C)CN1 [Compound 139, 1-(4-(4-fluorobenzoyl)-8,8-dimethyl-7,8-dihydro-6H-pyrrolo[2,3-e][1,2,4]triazolo[1,5-a]pyridin-6-yl)-2-((2R,5R)-5-methyl-2-(((R)-3-methylmorpholino)methyl)piperazin-1-yl)ethan-1-one] | 710 |  |
| C[C@@H]1CN(CC(=O)N2CC(C)(C)c3c2cc(Cc2ccc(F)cc2)c2nn(CC(C)(C)O)c(=O)n32)[C@@H](CN2CCOCC2(C)C)CN1 [Compound 277, 6-(2-((2R,5R)-2-((3,3-dimethylmorpholino)methyl)-5-methylpiperazin-1-yl)acetyl)-4-(4-fluorobenzyl)-2-(2-hydroxy-2-methylpropyl)-8,8-dimethyl-2,6,7,8-tetrahydro-1H-pyrrolo[2,3-e][1,2,4]triazolo[4,3-a]pyridin-1-one] | 67 |  |
| C[C@@H]1CN(CC(=O)N2CC(C)(C)c3c2cc(Cc2ccc(F)cc2)c2nc(C(F)(F)F)cn32)[C@@H](CN2CCN(CC#N)C[C@H]2C)CN1 [Compound 175, 2-((R)-4-(((2R,5R)-1-(2-(4-(4-fluorobenzyl)-8,8-dimethyl-2-(trifluoromethyl)-7,8-dihydro-6H-imidazo[1,2-a]pyrrolo[2,3-e]pyridin-6-yl)-2-oxoethyl)-5-methylpiperazin-2-yl)methyl)-3-methylpiperazin-1-yl)acetonitrile] | 120 |  |
| C[C@@H]1CN(CC(=O)N2CC(C)(C)c3c2cc(Cc2ccc(F)cc2)c2nn(CC(C)(C)O)c(=O)n32)[C@@H](CN2CC3CC(C2)O3)CN1 [Compound 286, 6-(2-((2R,5R)-2-((6-oxa-3-azabicyclo[3.1.1]heptan-3-yl)methyl)-5-methylpiperazin-1-yl)acetyl)-4-(4-fluorobenzyl)-2-(2-hydroxy-2-methylpropyl)-8,8-dimethyl-2,6,7,8-tetrahydro-1H-pyrrolo[2,3-e][1,2,4]triazolo[4,3-a]pyridin-1-one] | 270 |  |
| C[C@@H]1CN(CC(=O)N2CC(C)(C)c3c2cc(S(=O)(=O)c2ccc(F)cc2)c2ncnn32)[C@@H](CN2CCOC[C@H]2C)CN1 [Compound 176, 1-(4-((4-fluorophenyl)sulfonyl)-8,8-dimethyl-7,8-dihydro-6H-pyrrolo[2,3-e][1,2,4]triazolo[1,5-a]pyridin-6-yl)-2-((2R,5R)-5-methyl-2-(((R)-3-methylmorpholino)methyl)piperazin-1-yl)ethan-1-one] | 190 |  |
| C[C@@H]1CN(CC(=O)N2CC(C)(C)c3c2cc(Cc2ccc(F)cc2)c2nc(C(=O)O)cn32)[C@@H](CN2CCOC[C@H]2C)CN1 [Compound 117, 4-(4-fluorobenzyl)-8,8-dimethyl-6-(2-((2R,5R)-5-methyl-2-(((R)-3-methylmorpholino)methyl)piperazin-1-yl)acetyl)-7,8-dihydro-6H-imidazo[1,2-a]pyrrolo[2,3-e]pyridine-2-carboxylic acid] | > 10000 |  |
| C[C@@H]1CN(CC(=O)N2CC(C)(C)c3c2cc(Cc2ccc(F)cc2)c2ncsc32)[C@@H](CN2CCOC[C@H]2C)CN1 [Example 27, 1-(4-(4-fluorobenzyl)-8,8-dimethyl-7,8-dihydro-6H-thiazolo[5,4-e]indol-6-yl)-2-((2R,5R)-5-methyl-2-(((R)-3-methylmorpholino)methyl)piperazin-1-yl)ethan-1-one] | 260 |  |
| C[C@@H]1CN(CC(=O)N2CC(C)(C)c3c2cc(Cc2ccc(F)cc2)c2nc(=O)n(C)n32)[C@@H](CN2CCOC[C@H]2C)CN1 [compound 127, 4-(4-fluorobenzyl)-1,8,8-trimethyl-6-(2-((2R,5R)-5-methyl-2-(((R)-3-methylmorpholino)methyl)piperazin-1-yl)acetyl)-7,8-dihydro-1H-pyrrolo[2,3-e][1,2,4]triazolo[1,5-a]pyridin-2(6H)-one] | 3080 |  |
| C[C@@H]1CN(CC(=O)N2CC(C)(C)c3c2cc(Cc2ccc(F)cc2)c2nn(Cc4ncn(C)n4)c(=O)n32)[C@@H](CN2CCOC[C@H]2C)CN1 [Compound 232, 4-(4-fluorobenzyl)-8,8-dimethyl-2-((1-methyl-1H-1,2,4-triazol-3-yl)methyl)-6-(2-((2R,5R)-5-methyl-2-(((R)-3-methylmorpholino)methyl)piperazin-1-yl)acetyl)-2,6,7,8-tetrahydro-1H-pyrrolo[2,3-e][1,2,4]triazolo[4,3-a]pyridin-1-one] | 330 |  |
| CNC(=O)c1nc2c(Cc3ccc(F)cc3)cc3c(n2n1)C(C)(C)CN3C(=O)CN1C[C@@H](C)NC[C@@H]1CN1CCOC[C@H]1C [Compound 255, 4-(4-fluorobenzyl)-N,8,8-trimethyl-6-(2-((2R,5R)-5-methyl-2-(((R)-3-methylmorpholino)methyl)piperazin-1-yl)acetyl)-7,8-dihydro-6H-pyrrolo[2,3-e][1,2,4]triazolo[1,5-a]pyridine-2-carboxamide] | 580 |  |
| C[C@@H]1CN(CC(=O)N2CC(C)(C)c3c2cc(Cc2ccc(F)cc2)c2nc(S(C)(=O)=O)nn32)[C@@H](CN2CCOC[C@H]2C)CN1 [Compound 200, 1-(4-(4-fluorobenzyl)-8,8-dimethyl-2-(methylsulfonyl)-7,8-dihydro-6H-pyrrolo[2,3-e][1,2,4]triazolo[1,5-a]pyridin-6-yl)-2-((2R,5R)-5-methyl-2-(((R)-3-methylmorpholino)methyl)piperazin-1-yl)ethan-1-one] | 70 |  |
| C[C@@H]1CN(CC(=O)N2CC(C)(C)c3c2cc(Cc2ccc(F)cc2)c2ncnn32)[C@@H](CN2CCC(F)(F)C[C@H]2C)CN1 [Compound 75, 2-((2R,5R)-2-(((R)-4,4-difluoro-2-methylpiperidin-1-yl)methyl)-5-methylpiperazin-1-yl)-1-(4-(4-fluorobenzyl)-8,8-dimethyl-7,8-dihydro-6H-pyrrolo[2,3-e][1,2,4]triazolo[1,5-a]pyridin-6-yl)ethan-1-one] | 87 |  |
| C[C@@H]1CN(CC(=O)N2CC(C)(C)c3c2cc(Cc2ccc(F)cc2)c2nn(Cc4ncccn4)c(=O)n32)[C@@H](CN2CCOC[C@H]2C)CN1 [Compound 221, 4-(4-fluorobenzyl)-8,8-dimethyl-6-(2-((2R,5R)-5-methyl-2-(((R)-3-methylmorpholino)methyl)piperazin-1-yl)acetyl)-2-(pyrimidin-2-ylmethyl)-2,6,7,8-tetrahydro-1H-pyrrolo[2,3-e][1,2,4]triazolo[4,3-a]pyridin-1-one] | 190 |  |
| C[C@@H]1CN(CC(=O)N2CC(C)(C)c3c2cc(Cc2ccc(F)cc2)c2nn(CC(C)(C)O)c(=O)n32)[C@@H](CN2C3COCC2C3)CN1 [Compound 289, 6-(2-((2R,5R)-2-((3-oxa-6-azabicyclo[3.1.1]heptan-6-yl)methyl)-5-methylpiperazin-1-yl)acetyl)-4-(4-fluorobenzyl)-2-(2-hydroxy-2-methylpropyl)-8,8-dimethyl-2,6,7,8-tetrahydro-1H-pyrrolo[2,3-e][1,2,4]triazolo[4,3-a]pyridin-1-one] | 1700 |  |
| C[C@@H]1CN(CC(=O)N2CC(C)(C)c3c2cc(Cc2ccc(F)cc2)c2cnc(C4CC4)n32)[C@@H](CN2CCOC[C@H]2C)CN1 [Compound 3, 1-(1-cyclopropyl-4-(4-fluorobenzyl)-8,8-dimethyl-7,8-dihydro-6H-imidazo[1,5-a]pyrrolo[2,3-e]pyridin-6-yl)-2-((2R,5R)-5-methyl-2-(((R)-3-methylmorpholino)methyl)piperazin-1-yl)ethan-1-one] | 59 |  |
| C[C@@H]1CN(CC(=O)N2CC(C)(C)c3c2cc(Cc2ccc(F)cc2)c2ncnn32)C(CN2CCN(CC#N)C3CC32)CN1 (stereo in doubt) [Compound 213, 2-(5-(((2S,5R)-1-(2-(4-(4-fluorobenzyl)-8,8-dimethyl-7,8-di hydro-6H-pyrrolo[2,3-e][1,2,4]triazolo[1,5-a]pyridin-6-yl)-2-oxoethyl)-5-methylpiperazin-2-yl)methyl)-2,5-diazabicyclo[4.1.0]heptan-2-yl)acetonitrile] | 560 |  |
| C[C@@H]1CN(CC(=O)N2CC(C)(C)c3c2cc(Cc2ccc(F)cc2)c2scnc32)[C@@H](CN2CCOC[C@H]2C)CN1 [Example 28, 1-(4-(4-fluorobenzyl)-8,8-dimethyl-7,8-dihydro-6H-thiazolo[4,5-e]indol-6-yl)-2-((2R,5R)-5-methyl-2-(((R)-3-methylmorpholino)methyl)piperazin-1-yl)ethan-1-one] | 330 |  |
